In PMC10447463, “Data-mining unveils structure–property–activity correlation of viral infectivity enhancing self-assembling peptides” (Nature Communications, 2023):
Like-named read-outs stand apart in the source and are kept apart here.

Legend:
[1] = Turbidity, derived count rate of scattered light; type: physicochemical; conditions: for Log Count Rate: log of derived count rate; for Count Rate: turbidity
How it was run: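 Samples: 1 mg/mL in PBS pH 7.4 (from DMSO), 1 d at RT, then diluted in 1 mM KCl immediately before measurement. Triplicates, two independent runs averaged.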

[2] = Zeta-potential measurement; type: physicochemical; conditions: for Zeta-pot. / mV: zeta potential of peptide, Fig S15 source data
How it was run: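 Peptides from a 10 mg/mL DMSO stock were brought to 1 mg/mL in PBS (pH 7.4) and aged 1 d at RT. Just before reading, they were diluted into 1 mM aqueous KCl, and zeta potential was calculated from electrophoretic mobility with the Smoluchowski formula.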

TZM-bl cells = type: cell-based; conditions: CellTiter-Glo, mean of n = 3 replicates; for viability 0.26 µM: peptide 0.26 µM; for viability 1.3 µM: peptide 1.3 µM; for viability 6.5 µM: peptide 6.5 µM
How it was run: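 Viability of TZM-bl cells (10,000 seeded) after 3 days with serially diluted peptides, measured by CellTiter-Glo luminescence. Values normalized to 100% metabolic activity; triplicates.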

[3] = Fig S8 panels A, C, asymmetric log errors
[4] = Fig S8 panels B, D, derived count rate of scattered light
[5] = derived count rate of scattered light, mean, std deviation in next column
[6] = category 1 or 0 from count rate, key not given
[7] = derived count rate of scattered light, mean, std deviation in separate column
[8] = category 1 or 0 derived from the count rate, key not given
[9] = derived count rate of scattered light
[10] = category derived from the zeta potential

Substance | Log Count Rate [1, 3] | Log Count Rate ([1]; Fig S8 panels B, D) | Count Rate [1, 4] | Zeta Count Rate Category ([1]; category 1/0, no key printed) | Zeta Count Rate / kcps [1, 5] [kcps] | Zeta category ( +1 = if > 4 mV;-1 = if < -4 mV; 0 = -4mV to 4 mV) [2] | Zeta Pot. / mV ([2]; mean, Std Zeta in next column) [mV] | Zeta-pot. / mV [2] [mV] | viability 0.26 µM (TZM-bl cells) | viability 1.3 µM (TZM-bl cells) | viability 6.5 µM (TZM-bl cells) | Zeta Count Rate Category [1, 6] | Zeta Count Rate / kcps [1, 7] [kcps] | Zeta category ( +1 = if > 4 mV;-1 = if < -4 mV; 0 = -4mV to 4 mV) ([2]; category from zeta potential) | Zeta Pot. / mV ([2]; mean, Std in separate column) [mV] | further results
CKWKWQW [KB4] | 3.876 | 3.876 | 7511.27 | 1 | 7511 | 1 (+1 = if > 4 mV) | 14.7 | 14.7 | 110.3 | 107 | 96.91 | – | – | – | – | –
KAKAQA [JJA2 / TM153] | – | – | – | 0 | 20.93 | -1 (-1 = if < -4 mV) | -14.08 | -14.08 | 119.1 | 118.6 | 109.1 | 0 | 20.93 | -1 (-1 = if < -4 mV) | -14.08 | –
KIKIQIC [TM112 / CN11] | 2.992 | 2.992 | 980.67 | – | 980.7 | 1 (+1 = if > 4 mV) | 19.93 | 19.93 | 99.13 | 101.3 | 97.07 | 1 | – | 1 (+1 = if > 4 mV) | – | Zeta Count Rate Category ([1]; category 1 / 0, no key given): 1; Zeta Count Rate Category [1, 8]: 1; Zeta Count Rate / kcps [1, 9]: 980.7 kcps; Zeta Pot. / mV [2]: 19.93 mV; Zeta category ( +1 = if > 4 mV;-1 = if < -4 mV; 0 = -4mV to 4 mV) [2, 10]: 1 (+1 = if > 4 mV)
RGDSKIKIQIC [TM113 / RC11] | – | – | – | – | 2699 | – | 15.1 | 15.1 | 92.36 | 89.65 | 83.18 | 1 | – | 1 (+1 = if > 4 mV) | – | –
HHHHKIKIKIKIYYYY [TM6] | 4.107 | 4.107 | 12792.5 | – | 12792.53333 | 1 (+1 = if > 4 mV) | 13.2 | 13.2 | 112.4 | 103.8 | 86.78 | – | – | – | – | Zeta Count Rate Category ([1]; category 1 / 0, no key given): 1; Zeta Count Rate Category [1, 8]: 1; Zeta Count Rate / kcps [1, 9]: 12792.53333 kcps; Zeta Pot. / mV [2]: 13.2 mV; Zeta category ( +1 = if > 4 mV;-1 = if < -4 mV; 0 = -4mV to 4 mV) [2, 10]: 1 (+1 = if > 4 mV)
QCKFKFQFNMWQ [CK7] | – | – | – | 1 | 1208 | 1 (+1 = if > 4 mV) | 21.07 | 21.07 | 107 | 97.9 | 88.11 | 1 | 1208 | 1 (+1 = if > 4 mV) | 21.07 | –
CKFKQFFNM [CK14] | 4.436 | 4.436 | 27264.3 | – | 27264.3 | 1 (+1 = if > 4 mV) | 15.2 | 15.2 | 126.1 | 113.2 | 106.7 | – | 27264.3 | – | 15.2 | Zeta Count Rate Category ([1]; category 1 / 0, no key given): 1; Zeta Count Rate Category [1, 8]: 1; Zeta Count Rate / kcps [1, 9]: 27264.3 kcps; Zeta Pot. / mV [2]: 15.2 mV; Zeta category ( +1 = if > 4 mV;-1 = if < -4 mV; 0 = -4mV to 4 mV) [2, 10]: 1 (+1 = if > 4 mV)
CEFEFQFNMWQ [TM140] | – | – | – | 1 | 186.3 | -1 (-1 = if < -4 mV) | -34.23 | -34.23 | 125.8 | 116.7 | 98.23 | – | – | – | – | Zeta Count Rate Category [1, 8]: 1; Zeta category ( +1 = if > 4 mV;-1 = if < -4 mV; 0 = -4mV to 4 mV) [2, 10]: -1 (-1 = if < -4 mV)
KIKQIINM [JGA2] | – | – | – | – | 2481 | 1 (+1 = if > 4 mV) | 16.3 | 16.3 | 123.3 | 117.7 | 101.1 | 1 | – | 1 (+1 = if > 4 mV) | 16.3 | Zeta Count Rate / kcps ([1]; derived count rate from zeta measurement, mean): 2481 kcps; Zeta Count Rate Category ([1]; key not given): 1
CHLHLQL [CN9] | 3.062 | 3.062 | 1154.63 | 1 | 1155 | -1 (-1 = if < -4 mV) | -12.27 | -12.27 | 107.2 | 104.6 | 96.74 | – | – | – | – | –
QCKFKQFFNMWQ [CK10] | – | 4.277 | 18911.4 | – | 18911.36667 | 1 (+1 = if > 4 mV) | 9.587 | 9.587 | 119.6 | 108.9 | 99.32 | 1 | 18911.36667 | 1 (+1 = if > 4 mV) | 9.587 | Zeta Count Rate Category ([1]; category 1 / 0, no key given): 1; Zeta Count Rate / kcps [1, 9]: 18911.36667 kcps; Zeta Pot. / mV [2]: 9.587 mV
KIKIKIQINMWQ [VH9] | – | – | – | – | 1603.1 | – | 13.1 | 13.1 | 103.6 | 97.29 | 82.19 | 1 | – | 1 (+1 = if > 4 mV) | – | –
QCKAKAQANMWQ [CK22] | – | – | – | 1 | 427.5 | -1 (-1 = if < -4 mV) | -8.05 | -8.05 | 96.23 | 96.71 | 85.72 | 1 | 427.5 | -1 (-1 = if < -4 mV) | -8.05 | –
QCKIKIQINMWQ [EF-C opt] | 3.918 | 3.918 | 8271.27 | 1 | 8271 | 1 (+1 = if > 4 mV) | 11.73 | 11.73 | 100.5 | 106.5 | 85.71 | 1 | 8271 | 1 (+1 = if > 4 mV) | 11.73 | –
CRFRFQF [CN10] | – | – | – | 1 | 390.5 | 0 (0 = -4mV to 4 mV) | -2.097 | -2.097 | 93.96 | 90.72 | 89.78 | – | – | – | – | –
RGDCKIKIQINM [TM45] | – | – | – | – | 1623 | 1 (+1 = if > 4 mV) | 11.3 | 11.3 | 111.8 | 107.9 | 102.5 | 1 | 1623 | 1 (+1 = if > 4 mV) | 11.3 | –
CQFQFQF [QBL4] | 3.899 | 3.899 | 7928.97 | 1 | 7929 | -1 (-1 = if < -4 mV) | -24.8 | -24.8 | 110.4 | 111.2 | 99.59 | – | – | – | – | –
QCKIKIQI [CK3] | – | – | – | 1 | 12426.83333 | 1 (+1 = if > 4 mV) | 9.52 | 9.52 | 95.48 | 97.81 | 91.95 | 1 | 12426.83333 | 1 (+1 = if > 4 mV) | 9.52 | –
